Data set [1] addresses T1, NAD-dependent protein deacetylase sirtuin-3, mitochondrial (Homo sapiens, UniProt Q9NTG7).
T1 sequence (Q9NTG7 whole entry): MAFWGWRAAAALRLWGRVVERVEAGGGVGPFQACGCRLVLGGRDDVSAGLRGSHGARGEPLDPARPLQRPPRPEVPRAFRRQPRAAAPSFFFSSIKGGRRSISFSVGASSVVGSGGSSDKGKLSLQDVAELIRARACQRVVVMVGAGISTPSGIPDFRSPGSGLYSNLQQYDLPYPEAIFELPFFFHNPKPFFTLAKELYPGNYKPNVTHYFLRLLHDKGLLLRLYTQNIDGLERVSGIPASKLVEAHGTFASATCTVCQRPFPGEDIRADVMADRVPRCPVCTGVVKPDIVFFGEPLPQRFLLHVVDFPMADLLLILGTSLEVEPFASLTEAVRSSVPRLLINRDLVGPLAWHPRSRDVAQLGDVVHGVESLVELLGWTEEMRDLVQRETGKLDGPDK
Description: Inhibition of wild type C-terminal human SIRT3 (118 to […] residues) expressed in Escherichia coli strain BL21DE3 Rosetta2 using Fluor de lys as substrate incubated for 30 mins by fluorescence based analysis.

For data set [2], the system named is HL-60. Description: cells. To be noted: Homo sapiens, HL-60, 24 h.
For data set [3], the system named is MV4-11. Put plainly: cells. To be noted: Homo sapiens, MV4-11, 24 h.
For data set [4], the system named is MOLM-13. Description: cells. To be noted: Homo sapiens, MOLM-13, 24 h.
In data set [5] the test system is MOLM-13. Put plainly: Induction of apoptosis in human MOLM-13 cells assessed as viable cells at 10 uM incubated for 24 hrs by annexin V/FITC and Propidium Iodide staining based flow cytometry analysis (reference value: 98.1%). The data set is classed as functional. To be noted: read-out: Activity.
In data set [6] the test system is HL-60. Put plainly: Induction of apoptosis in human HL-60 cells assessed as viable cells at 5 uM incubated for 24 hrs by annexin V/FITC and Propidium Iodide staining based flow cytometry analysis (reference value: 98.9%). The data set is classed as functional. To be noted: read-out: Activity.
The subject of data set [7] is MOLM-13. Description: Induction of apoptosis in human MOLM-13 cells assessed as viable cells at 5 uM incubated for 24 hrs by annexin V/FITC and Propidium Iodide staining based flow cytometry analysis (reference value: 98.1%). To be noted: read-out: Activity. The data set is classed as functional.
For data set [8], the system named is HL-60. Put plainly: Induction of apoptosis in human HL-60 cells assessed as viable cells at 10 uM incubated for 24 hrs by annexin V/FITC and Propidium Iodide staining based flow cytometry analysis (reference value: 98.9%). The data set is classed as functional. To be noted: read-out: Activity.
The nature of data set [9]: Toxicity in nude mouse assessed as effect on spleen at 5 mg/kg, ip administered daily for upto 14 days. The data set is classed as organism-based. To be noted: in vivo, 336 h, time < 14 day.
Data set [10] can be described thus: Toxicity in nude mouse assessed as effect on heart at 5 mg/kg, ip administered daily for upto 14 days. The data set is classed as organism-based. To be noted: in vivo, 336 h, time < 14 day.
Data set [11] has as its target T2, NAD-dependent protein deacetylase sirtuin-2 (Homo sapiens, UniProt Q8IXJ6).
T2 sequence (Q8IXJ6 whole entry): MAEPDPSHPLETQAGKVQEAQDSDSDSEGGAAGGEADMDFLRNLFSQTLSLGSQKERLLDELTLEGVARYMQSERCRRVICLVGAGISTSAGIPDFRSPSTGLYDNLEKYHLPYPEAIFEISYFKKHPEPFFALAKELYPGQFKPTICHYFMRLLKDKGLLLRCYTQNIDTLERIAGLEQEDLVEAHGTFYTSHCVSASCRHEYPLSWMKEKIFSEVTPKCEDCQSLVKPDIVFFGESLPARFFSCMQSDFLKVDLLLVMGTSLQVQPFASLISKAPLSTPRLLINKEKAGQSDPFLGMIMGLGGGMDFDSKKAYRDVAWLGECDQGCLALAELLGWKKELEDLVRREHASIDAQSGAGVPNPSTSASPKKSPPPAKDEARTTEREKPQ
Description: Inhibition of recombinant human SIRT2 using Fluor de lys as substrate incubated for 30 mins by fluorescence based analysis.

Data set [12] in a line: Toxicity in nude mouse assessed as effect on body weight at 5 mg/kg, ip administered daily for upto 14 days. The data set is classed as organism-based. To be noted: in vivo, 336 h, time < 14 day.
Data set [13] is described as follows: Toxicity in nude mouse assessed as effect on liver at 5 mg/kg, ip administered daily for upto 14 days. The data set is classed as organism-based. To be noted: in vivo, 336 h, time < 14 day.
Data set [14] concerns MOLM-13. Description: Induction of apoptosis in human MOLM-13 cells assessed as viable cells at […] incubated for 24 hrs by annexin V/FITC and Propidium Iodide staining based flow cytometry analysis (reference value: 98.1%). The data set is classed as functional. To be noted: dose 2.5 µM, read-out: Activity.
Data set [15] can be described thus: Toxicity in nude mouse assessed as effect on brain at 5 mg/kg, ip administered daily for upto 14 days. The data set is classed as organism-based. To be noted: in vivo, 336 h, time < 14 day.
Data set [16] is described as follows: Toxicity in nude mouse assessed as effect on lung at 5 mg/kg, ip administered daily for upto 14 days. The data set is classed as organism-based. To be noted: in vivo, 336 h, time < 14 day.
The test system of data set [17] is HL-60. Description: Induction of apoptosis in human HL-60 cells assessed as viable cells at […] incubated for 24 hrs by annexin V/FITC and Propidium Iodide staining based flow cytometry analysis (reference value: 98.9%). The data set is classed as functional. To be noted: dose 2.5 µM, read-out: Activity.
The subject of data set [18] is MV4-11. Put plainly: Induction of apoptosis in human MV4-11 cells assessed as viable cells at 5 uM incubated for 24 hrs by annexin V/FITC and Propidium Iodide staining based flow cytometry analysis (reference value: 95.4%). The data set is classed as functional. To be noted: read-out: Activity.
Data set [19] in a line: Toxicity in nude mouse assessed as effect on kidney at 5 mg/kg, ip administered daily for upto 14 days. The data set is classed as organism-based. To be noted: in vivo, 336 h, time < 14 day.
In data set [20] the test system is MV4-11. Put plainly: Induction of apoptosis in human MV4-11 cells assessed as viable cells at 10 uM incubated for 24 hrs by annexin V/FITC and Propidium Iodide staining based flow cytometry analysis (reference value: 95.4%). The data set is classed as functional. To be noted: read-out: Activity.
The test system of data set [21] is MV4-11. Put plainly: Induction of apoptosis in human MV4-11 cells assessed as viable cells at […] incubated for 24 hrs by annexin V/FITC and Propidium Iodide staining based flow cytometry analysis (reference value: 95.4%). The data set is classed as functional. To be noted: dose 2.5 µM, read-out: Activity.
Data set [22] has as its target T2, NAD-dependent protein deacetylase sirtuin-2. Put plainly: Inhibition of SIRT2 (unknown origin).
In data set [23] the target is T1, NAD-dependent protein deacetylase sirtuin-3, mitochondrial. Put plainly: Inhibition of recombinant human SIRT3 using Fluor de lys as substrate incubated for 30 mins by fluorescence based analysis.

Where only a bound is given, the exact number is not on record here.

For the molecule `Oc1cc(O)cc(/C=C/c2ccc(Br)cc2)c1`, in data set [1], inhibition was half-maximal at 143 µM (IC50).

In the case of `c1cncc(-c2cnn[nH]2)c1`, the results for the IC50 in data set [2], in data set [3] and in data set [4] were over 50 µM, 27.8 µM and 12.6 µM, respectively.

In the case of `C#Cc1cccc(NC(=O)N2C[C@H]3C[C@@H](C2)N3c2ncnc3cc(C(N)=O)sc23)c1`, the IC50 in data set [2] stood at 38.2 µM; in [3], 28.7 µM; in [4] it was 33.2 µM.

Regarding `NC(=O)c1cc2ncnc(N3[C@@H]4CC[C@H]3CN(C(=O)Nc3ccc(C(F)(F)F)cc3)C4)c2s1`, the viability at 10 µM in data set [5] worked out at 62.5%; in [8] it was 73%; in [20], 65%. Moreover, the viability at 5 µM turned out to be 78.2% in [6], 67.5% in data set [7] and 78.2% in data set [18]. The Activity entry in data set [9], in data set [10], in [12], in data set [13], in data set [15] and in data set [16] was “Non-Toxic” throughout. The Activity result in data set [19] is “Non-Toxic”. For the same molecule, in data set [11], the concentration for half-maximal inhibition (IC50) was determined as 0.474 µM. Also, the viability at […] in [14] came out at 90.4%; in data set [17], 84.5%; in data set [21], 85.7%.

As to `NC(=O)c1cc2ncnc(N3CCN(C(=O)Nc4ccccc4F)CC3)c2s1`, the IC50 in data set [2] was over 50 µM; in data set [3] it was over 50 µM; in data set [4] it was 39.8 µM.

With `Cc1ccc(NC(=O)N2C[C@H]3C[C@@H](C2)N3c2ncnc3cc(C(N)=O)sc23)cc1`, the IC50 in data set [2], in data set [3] and in data set [4] was over 50 µM each time.

For `NC(=O)c1cc2ncnc(N3[C@@H]4CC[C@H]3CN(C(=O)Nc3ccc5ccccc5c3)C4)c2s1`, the figures for the IC50 in data set [2], in data set [3] and in [4] were 17.4 µM, 14.7 µM and 10.6 µM, respectively.

In the case of `NC(=O)c1cc2ncnc(N3CCN(C(=O)Nc4cc(Cl)cc(Cl)c4)CC3)c2s1`, the half-inhibitory concentration (IC50) in data set [2] is 5.45 µM; in data set [3], 7.28 µM; in [4], 3.47 µM.

For `NC(=O)c1cc2ncnc(N3[C@@H]4C[C@H]3CN(C(=O)Nc3ccc(Cl)c(Cl)c3)C4)c2s1`, the IC50 in data set [2] was found to be 27.1 µM; in data set [3] it was 19.9 µM; in [4], 25 µM.

`NC(=O)c1cc2ncnc(N3CCN(C(=O)Nc4ccc(F)cc4F)CC3)c2s1`: the IC50 is over 50 µM in [2], over 50 µM in [3] and 33.1 µM in data set [4].

In the case of `NC(=O)c1cc2ncnc(N3CCN(C(=O)Nc4ccc(Cl)cc4)CC3)c2s1`, the IC50 came to 36.3 µM in data set [2], 12.3 µM in data set [3] and 4.26 µM in [4].

With `Cc1ccc(NC(=O)N2C[C@H]3CC[C@@H](C2)N3c2ncnc3cc(C(N)=O)sc23)cc1`, the half-maximal inhibitory concentration (IC50) is 36.9 µM in data set [2], 18.1 µM in data set [3] and 4.73 µM in data set [4].

As for `Cc1ccc(NC(=O)N2CCN(c3ncnc4cc(C(N)=O)sc34)CC2)cc1`, the IC50 in data set [2] worked out at 36.3 µM; in data set [3], 25.7 µM; in data set [4], 6.27 µM.

Consider `NC(=O)c1cc2ncnc(N3[C@@H]4C[C@H]3CN(C(=O)Nc3ccccc3Cl)C4)c2s1`, for which the IC50 in data set [2], in data set [3] and in [4] was over 50 µM throughout.

For the molecule `NC(=O)c1cc2ncnc(N3[C@@H]4C[C@H]3CN(C(=O)Nc3cc(C(F)(F)F)cc(C(F)(F)F)c3)C4)c2s1`, the figures for the IC50 in [2], in data set [3] and in data set [4] were 31.5 µM, 26.3 µM and 41.5 µM, respectively.

As to `NC(=O)c1cc2ncnc(N3[C@@H]4C[C@H]3CN(C(=O)Nc3ccc(C(F)(F)F)cc3)C4)c2s1`, the IC50 in data set [2] came to 36.6 µM; in [3] it was 26.3 µM; in data set [4], 38.3 µM.

For the molecule `NC(=O)c1cc2ncnc(N3[C@@H]4C[C@H]3CN(C(=O)Nc3ccc(F)cc3F)C4)c2s1`, the IC50 in data set [2], in [3] and in data set [4] was over 50 µM throughout.

Molecule `CCNC(=S)c1ccc(C(=O)NCCC2CCN(c3ncnc4cc(C(N)=O)sc34)CC2)s1` displayed an IC50 in data set [22] of 0.0027 µM.

`NC(=O)c1cc2ncnc(N3CCN(C(=O)NC4CCCCC4)CC3)c2s1`: the IC50 in [2] stood at 37.1 µM; in [3], 33.3 µM; in data set [4] it was 17.7 µM.

Consider `NC(=O)c1cc2ncnc(N3[C@@H]4C[C@H]3CN(C(=O)Nc3cccc(Cl)c3)C4)c2s1`, for which the IC50 in data set [2] is over 50 µM; in data set [3], 34.1 µM; in [4] it was 36.1 µM.

On to `NC(=O)c1cc2ncnc(N3[C@@H]4CC[C@H]3CN(C(=O)Nc3ccc(Cl)c(Cl)c3)C4)c2s1`, for which the IC50 amounted to 1.15 µM in [2], 0.125 µM in data set [23], 5.09 µM in data set [3] and 2.35 µM in [4].

The values are drawn from ChEMBL document CHEMBL5608205, “Design, synthesis and biological evaluation of novel SIRT3 inhibitors targeting both NAD+ and substrate binding sites for the treatment of acute myeloid leukemia” (Eur J Med Chem, 2024).
